ChEMBL document CHEMBL1201862, “PubChem BioAssay data set” (2004)
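Growth conditions: 96-well plates. Treatment: test compound, 48 hours, 5 concentrations. Analysis: linear interpolation between bracketing concentrations; unreached endpoints set to highest concentration. Here, GI50 denotes the concentration required for 50% inhibition of growth.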 Activity calls are given as the source filed them. Rule as the data show it: active = GI50 up to about 1.1 µM and inactive = higher.

Experiments:
Assay in all cases: inhibition of tumour cell growth, NCI panel, 48 h
[1] = tested on: T47D
[2] = tested on: LXFL 529
[3] = tested on: DMS-273
[4] = tested on: DLD-1
[5] = tested on: KM-20L2
[6] = tested on: XF498
[7] = tested on: DMS-114
[8] = tested on: HOP-18
[9] = tested on: RXF 631

Structure (SMILES)	GI50 [1]	GI50 [4]	GI50 [5]	also measured
CCC1(N)C(=O)OCc2c1cc1n(c2=O)Cc2cc3ccccc3nc2-1 (centres undefined)	2.35 µM (inactive)			
N=C(N)SCC(=O)O	> 100 µM (inactive)			
CN(C)c1ccc(/C=C/c2ccc3ccccc3[n+]2C)cc1	1.63 µM (inactive)			
COc1cc2c(cc1OC)C(=O)/C(=C/c1cc(C)c(O)c(C)c1)C2	> 100 µM (inactive)			
O=C(O)/C=C/c1ccncc1		> 100 µM (inactive)	> 100 µM (inactive)	GI50 [2]: > 100 µM (inactive); GI50 [3]: > 100 µM (inactive); GI50 [6]: > 100 µM (inactive); GI50 [7]: > 100 µM (inactive)
O=C(N[C@@H](c1ccccc1)[C@@H](O)C(=O)OCc1ccc2c(c1)OCO2)c1ccccc1		> 100 µM (inactive)	> 100 µM (inactive)	GI50 [3]: > 100 µM (inactive); GI50 [8]: > 100 µM (inactive); GI50 [6]: > 76.2 µM (inactive); GI50 [7]: > 100 µM (inactive)
CC1C(=O)CC(c2cccs2)N(N=O)C1c1cccs1 (centres undefined)		70.3 µM (inactive)	71 µM (inactive)	GI50 [3]: 38.5 µM (inactive); GI50 [8]: 75.2 µM (inactive); GI50 [6]: 3.08 µM (inactive)
CC1OC=CC(=O)C1O (centres undefined)		> 100 µM (inactive)	> 100 µM (inactive)	GI50 [2]: > 100 µM (inactive); GI50 [6]: > 100 µM (inactive)
O=c1oc2c(ccc3occc32)c(N2CCCCC2)c1-c1ccccc1		> 100 µM (inactive)	> 100 µM (inactive)	GI50 [3]: > 100 µM (inactive); GI50 [8]: > 88.5 µM (inactive); GI50 [6]: > 100 µM (inactive); GI50 [7]: > 86.1 µM (inactive)
CCOC(=O)/C=C/c1c[nH]c(=O)[nH]c1=O		> 75 µM (inactive)	> 75 µM (inactive)	GI50 [3]: > 75 µM (inactive); GI50 [8]: > 75 µM (inactive); GI50 [6]: 11.9 µM (inactive); GI50 [7]: > 75 µM (inactive)
CCOC(=O)C1=C(Nc2ccc(Cl)cc2Cl)OC/C1=N\NS(=O)(=O)c1ccc(C)cc1		> 100 µM (inactive)	> 100 µM (inactive)	GI50 [2]: > 100 µM (inactive); GI50 [3]: > 100 µM (inactive); GI50 [8]: > 100 µM (inactive); GI50 [7]: > 100 µM (inactive)
N#CCCc1nc2ccc(Br)cc2c(=O)n1-c1ccc(O)c([N+](=O)[O-])c1		16.9 µM (inactive)	46.3 µM (inactive)	GI50 [2]: 20 µM (inactive); GI50 [9]: 17.9 µM (inactive); GI50 [6]: 17.1 µM (inactive)
Cn1c(=O)c2c(nc3sc4c(n32)C(=O)c2c(O)ccc(O)c2C4=O)n(C)c1=O	2.43 µM (inactive)			
CS/C(=N\C(=S)N(C)C)N(c1ccccc1)c1nc(N(C)C)s[s+]1			15.9 µM (inactive)	GI50 [2]: 3.87 µM (inactive); GI50 [3]: 3.52 µM (inactive); GI50 [7]: 0.708 µM (active)
N/C(=N\Nc1nc2cc([N+](=O)[O-])ccc2o1)c1ccccn1	0.073 µM (active)			
COC(=O)C(COC(C)=O)NC(=O)/C=C/c1ccc(O)c(OC(C)=O)c1 (centres undefined)	31.2 µM (inactive)			
CC1(c2cc3c(cc2Br)OCO3)SCCCS1		34.8 µM (inactive)	34.4 µM (inactive)	GI50 [2]: 45.7 µM (inactive); GI50 [9]: 44.9 µM (inactive); GI50 [3]: 45.2 µM (inactive); GI50 [6]: 29.5 µM (inactive); GI50 [7]: 32.2 µM (inactive)
O=C1C(Cl)=C(N2C(=O)CCCC2=O)C(=O)c2ccccc21	22.9 µM (inactive)			
CN(C)CCCN1c2ccc([N+](=O)[O-])cc2CCc2cc([N+](=O)[O-])ccc21	16.1 µM (inactive)			
O=C(O)COc1ccccc1C(=O)Nc1ccccc1		> 100 µM (inactive)	> 100 µM (inactive)	GI50 [2]: > 100 µM (inactive); GI50 [3]: > 100 µM (inactive); GI50 [6]: > 100 µM (inactive)
Clc1ccc(OCC2NC3CCC2CC3)cn1 (centres undefined)	29.8 µM (inactive)			
CCOC1=CP(=O)(OCC)CC(C)=C1Cl (centres undefined)		> 100 µM (inactive)	> 100 µM (inactive)	GI50 [2]: > 100 µM (inactive); GI50 [3]: 15.7 µM (inactive); GI50 [7]: > 100 µM (inactive)

Structure (SMILES)	GI50 [1]	GI50 [4]	GI50 [5]	also measured
C/C(=N\NS(=O)(=O)c1ccc(C)cc1)P(=O)(O)O	> 100 µM (inactive)			
CN(C)/N=C(\CCN1CCCC1)CC(c1ccccc1)c1c(O)c2ccccc2oc1=O (centres undefined)		> 100 µM (inactive)	> 100 µM (inactive)	GI50 [2]: > 100 µM (inactive); GI50 [6]: > 100 µM (inactive)
CC1(c2cccc(Cl)c2)CC(c2cccc(Cl)c2)=C(C#N)C(=C(C#N)C#N)N1 (centres undefined)	13.2 µM (inactive)			
CC(C)(Cl)C(Br)CC/C(CBr)=C(/Cl)CCl.CC(C)(Cl)C(Br)CC/C(CBr)=C(\Cl)CCl (centres undefined)	2.32 µM (inactive)			
COc1cc(C2c3cc4c(cc3OC(NCCO)C2C)OCO4)cc(OC)c1O (centres undefined)	18.2 µM (inactive)			
COn1cc(CO)c2ccccc21	30.8 µM (inactive)			
CC(C)C(N)C(=O)NC(CCC(=O)NCCCCC(N)C(=O)NCCCNc1ccc([N+](=O)[O-])c2[nH]c3ccccc3c(=O)c12)C(N)=O (centres undefined)	> 100 µM (inactive)			
O=CNNC(=O)CSc1nc2ccc(I)cc2c(=O)n1Cc1ccccc1	33.4 µM (inactive)			
C[N+](C)(CCNC(=O)c1cccc2cc3ccccc3nc12)Cc1ccc([N+](=O)[O-])s1	> 25 µM (inactive)			
N#Cc1c(-c2ccccc2)cc(-c2ccccc2)n(C2OCC(O)C(O)C2O)c1=S (centres undefined)	4.42 µM (inactive)			
O=C1c2ccccc2C(=O)N1CCSCC(CO)SCCN1C(=O)c2ccccc2C1=O (centres undefined)	86.9 µM (inactive)			
Cc1ccc(S(=O)(=O)NC(=O)Nc2ccc(C(=O)O)cc2)cc1	> 100 µM (inactive)			
CCc1ccccc1NC(=O)CCc1n[nH]c(=S)o1		92.5 µM (inactive)	> 100 µM (inactive)	GI50 [2]: > 100 µM (inactive); GI50 [3]: > 100 µM (inactive); GI50 [8]: > 100 µM (inactive); GI50 [7]: > 100 µM (inactive)
O=C1NCC2(CCNCC2)N1	> 100 µM (inactive)			
Cc1ccc(/C=C2/N/C(=N\N=C/c3ccccc3)NC2=O)cc1	28.7 µM (inactive)			
COc1ccccc1CNCCCCCNCCCCCCCCCCNCCCCCNCc1ccccc1OC	54.7 µM (inactive)			
Cc1cccc(C(C)(C)C)c1NC(=O)CCc1nnc(S)[nH]1		> 100 µM (inactive)	> 100 µM (inactive)	GI50 [2]: > 100 µM (inactive); GI50 [9]: > 100 µM (inactive); GI50 [3]: > 100 µM (inactive); GI50 [6]: > 100 µM (inactive); GI50 [7]: > 100 µM (inactive)
COc1ccc(NC(C)=O)c(C(=O)CCNC(C)=O)c1	> 100 µM (inactive)			
C#Cc1c(C)c(/C=C/C(C)=C/C=C/C(C)=C/C(=O)OC)n(C)c1C		> 100 µM (inactive)	> 100 µM (inactive)	GI50 [2]: > 100 µM (inactive); GI50 [9]: > 100 µM (inactive); GI50 [6]: > 100 µM (inactive); GI50 [7]: > 100 µM (inactive)
COC(=O)/C(C#N)=C1\NN=NN1CCCc1ccccc1		> 100 µM (inactive)		GI50 [2]: > 100 µM (inactive); GI50 [9]: > 100 µM (inactive); GI50 [3]: > 100 µM (inactive); GI50 [8]: 90.6 µM (inactive); GI50 [7]: > 100 µM (inactive)
CCOC(=O)C1c2[nH]c3ccccc3c2CCN1C(=O)c1ccc(OC)o1 (centres undefined)	> 10 µM (inactive)			
CC(C)(C)NC(=O)CCC1C(C(=O)NC(C)(C)C)C2(Cl)C(Cl)=C(Cl)C1(Cl)C2(Cl)Cl (centres undefined)	> 100 µM (inactive)			

Structure (SMILES)	GI50 [1]	GI50 [4]	GI50 [5]	also measured
CCN(CC)CCCNc1nc(=O)[nH]c(C)c1C(=O)Nc1cccc2cc3ccccc3cc12	> 100 µM (inactive)			
N#Cc1nc(CCCN2C(=O)c3ccccc3C2=O)oc1N	> 100 µM (inactive)			
CC(C(O)c1ccccc1)C(O)(C(F)(F)F)C(F)(F)F (centres undefined)	> 100 µM (inactive)			
COc1cc2c(cc1OCCCCCCCCN1C(=O)c3cccc4cccc(c34)C1=O)N=C[C@@H]1CCCN1C2=O	73.6 µM (inactive)			
CCOC(=O)C1=C(C)N(NC(N)=O)C(C)(O)C12CCOC2=O (centres undefined)		> 100 µM (inactive)	> 100 µM (inactive)	GI50 [2]: > 100 µM (inactive); GI50 [9]: > 100 µM (inactive); GI50 [3]: > 100 µM (inactive); GI50 [6]: > 100 µM (inactive)
COC(=O)/C=C1/OC(c2ccccc2)=C(Br)C1=O	45.3 µM (inactive)			
Cc1c(NC(=S)NN)c(=O)n(-c2ccccc2)n1C	> 100 µM (inactive)			
COc1ccc(-c2c(C#N)c(S)n(NS(=O)(=O)c3ccccc3)c(=O)c2C#N)cc1	36.1 µM (inactive)			
COC(=O)c1c2c(cc3c1CCC3)CCC2	13.3 µM (inactive)			
CN(C)Cc1cc(/N=N/c2c(Cl)cccc2Cl)ccc1O	42.6 µM (inactive)			
O=C(/C=C1\C[C@H]2C=Nc3ccccc3C(=O)N2C1)NCCCCCNC(=O)/C=C1\C[C@H]2C=Nc3ccccc3C(=O)N2C1	2.53 µM (inactive)			
CC1=C[P+](c2ccccc2)(c2ccccc2)c2ccccc2O1	0.597 µM (active)			
COc1ccc2oc(=O)c(-c3cc4c(c(C)n3)c(=O)oc3ccc(OC)cc34)cc2c1	> 100 µM (inactive)			
CCCCCCCCOC(CO)CO		> 100 µM (inactive)	> 100 µM (inactive)	GI50 [2]: > 100 µM (inactive); GI50 [3]: > 100 µM (inactive); GI50 [8]: > 100 µM (inactive); GI50 [7]: > 100 µM (inactive)
C#C[C@]1(O)CC[C@H]2[C@@H]3CCC4=C/C(=N/NC(=O)c5cccc6cc7ccccc7nc56)CC[C@@H]4[C@H]3CC[C@@]21CC	21 µM (inactive)			
O=C(C[n+]1ccccc1)N/N=C(\C(=O)NC1=C(Cl)C(=O)c2ccccc2C1=O)c1c(O)c2ccc(O)cc2oc1=O	5.56 µM (inactive)			
COC1/C(=C\c2ccccc2I)c2ccccc2N1C(C)=O (centres undefined)		15.5 µM (inactive)	15.7 µM (inactive)	GI50 [2]: 12.9 µM (inactive); GI50 [3]: 11.7 µM (inactive); GI50 [8]: 19 µM (inactive); GI50 [7]: 17 µM (inactive)
O=c1[nH]c(Nc2ccc(Br)c(C(F)(F)F)c2)nc2[nH]cnc12	32.7 µM (inactive)			
CN1C(=O)C(O)C[C@@H]1c1ccc(F)cc1 (some centres undefined)	> 100 µM (inactive)			
CCCCCCc1cn([C@H]2C[C@H](O)[C@@H](CO)O2)c(=O)[nH]c1=O		> 100 µM (inactive)	> 100 µM (inactive)	GI50 [3]: > 100 µM (inactive); GI50 [8]: > 100 µM (inactive); GI50 [6]: > 100 µM (inactive); GI50 [7]: > 100 µM (inactive)
CC(NC1CCCC[C@@H]1O)c1ccccc1 (some centres undefined)		> 100 µM (inactive)	> 100 µM (inactive)	GI50 [2]: > 100 µM (inactive); GI50 [3]: > 100 µM (inactive); GI50 [8]: > 100 µM (inactive); GI50 [6]: > 100 µM (inactive)
COC(=O)C1CCC[C@H]2C(CO)=C(C)C(=O)[C@@H]12 (some centres undefined)		> 100 µM (inactive)	> 100 µM (inactive)	GI50 [2]: > 100 µM (inactive); GI50 [3]: > 100 µM (inactive); GI50 [8]: > 100 µM (inactive); GI50 [6]: > 100 µM (inactive); GI50 [7]: > 100 µM (inactive)
